Data published in patent publication US20060094068A1, “Predictive markers in cancer therapy” (priority 2002, published 2006).
“Also recorded” adds a separate entry of the source.

Tests used:
[1] = test system: AKT; assay: AKT activation in HN5 cells (Western blot); type: cell-based, human; details: 5 μM, 24 h
[2] = target: T1, erbB2 (Homo sapiens, UniProt P04626); assay: EGF stimulation experiment, p-Tyr/erbB2 in BT474 cells; details: 1 μM, 24 h, serum-free, with or without EGF 50 ng/ml
[3] = test system: Hb4a cells; assay: Hb4a cell growth, viable cell count by trypan blue exclusion; type: cell-based, human; details: GW572016 2.5 μM + EGF 50 ng/ml, 72 h
Method: Exponentially growing Hb4a cells were cultured in 35 mm petri dishes with serum-free medium containing 1.5% BSA. […] Viable cells were counted after 72 h using trypan blue exclusion.

[4] = target: T1, erbB2; assay: Clinical trial, erbB2 p-tyr and total erbB2 in tumor biopsies (IHC); details: patient 361, 1200 mg/day
[5] = test system: Erk1/2; assay: Quantitative IHC of Erk1/2 in tumor xenografts; type: in vivo, mice
Excerpt: DAB (Dako) was used as the chromogen.
Inhibition of erbB2/EGFR p-tyr in turn led to the inhibition of downstream activated, phospho-Erk1/2.

[6] = test system: S1 cells; assay: Cell cycle analysis / apoptosis in S1 cells (propidium iodide flow cytometry); details: 5 μM, 72 h
Method: Cells were harvested and fixed with 70% ethanol in PBS. Cell pellets were then resuspended in 0.5 ml PBS containing propidium iodide (50 μg/ml) and DNase-free RNase (100 μg/ml). Cell cycle analysis was performed using a BD Flow Cytometer (Becton Dickinson, San Jose, Calif., USA).
After 72 h, cell cycle analysis was performed using propidium iodide staining and flow cytometry as described in Materials and methods.

[7] = test system: Erk1/2; assay: Erk1/2 activation in BT474 cells (Western blot); type: cell-based, human
[8] = test system: p-AKT; assay: Clinical trial, p-AKT in sequential tumor biopsies (quantitative IHC); details: patient 361, after 21 days of treatment
[9] = test system: Erk1/2; assay: Erk1/2 activation in HN5 cells (Western blot); type: cell-based, human
[10] = target: T1, erbB2; assay: Quantitative IHC of erbB2 in HN5 and BT474 xenografts; type: in vivo, mice; details: 200 mg/kg oral once daily
[11] = test system: Erk1/2; assay: Clinical trial, localisation of total Erk1/2 in tumor biopsies (IHC); details: patient 361, day 21; before treatment nuclear
Excerpt: Erk1/2 (1:1200), erbB3 (1:10), heregulin (1:25), and TGFα (1:20) were also immunostained using the BenchMark™ with I-VIEW detection chemistry.

[12] = test system: HN5 cells; assay: Apoptosis and growth arrest in HN5 cells; type: cell-based, human
[13] = test system: AKT; assay: p-AKT in HN5 tumor xenografts (Western blot); type: in vivo, CD-1 nude mice
Method: (§1) HN5 cells were grown in DMEM supplemented with 10% fetal bovine serum, sodium pyruvate and L-glutamine at 37° C. in a 95/5% air/CO2 atmosphere. […] Cells (2×10^6/mouse) in 0.2 ml were injected into the right flank of CD-1 nude mice. Female CD-1 nude mice were acquired from Charles River Laboratories. Mice were maintained in filter-topped cages in an aseptic environment with laminar flow filtered ventilation. […] Tumors were biopsied pre-treatment and 4 hours after the last dose. All animal surgery was conducted under aseptic conditions. For the initial biopsy, mice were anesthetized with isofluorane inhalation. The skin over the tumor was disinfected with iodine. A small hemostat was used to tease away the skin from the tumor, and scissors were used to make a 1 cm incision over the tumor. A scalpel and forceps were used to remove approximately 100 mg of tumor. The tumor was then frozen in liquid nitrogen. Wound clips were used to close the incision. The anesthetized mice were kept warm until they recovered mobility, usually less than 1-2 minutes. For the terminal biopsy, mice were euthanized with CO2 inhalation, and the remainder of the tumor excised. HN5 tumors were placed on dry ice in vials containing cold isopentane, nd stored at −80° C. prior to study. […]

[14] = test system: Erk1/2; assay: p-Erk1/2 in Hb4a cells (Western blot); type: cell-based, human; details: 72 h, GW572016 5 μM, Herceptin 10 μg/ml
[15] = test system: cyclin D1; assay: Clinical trial, cyclin D1 in sequential tumor biopsies (quantitative IHC)
[16] = test system: solid tumors; assay: Clinical trial, clinical response (RECIST re-staging at eight weeks); details: for Clinical response at 8 weeks: 1200 mg/d
[17] = test system: Erk1/2; assay: p-Erk1/2 in HN5 tumor xenografts (Western blot); type: in vivo, CD-1 nude mice
Method: as §1

[18] = test system: p-Erk1/2; assay: Clinical trial, p-ERK index in sequential tumor biopsies (quantitative IHC); details: patient 361, day 21
[19] = test system: AKT; assay: AKT activation in BT474 cells (Western blot); type: cell-based, human; details: 1 μM, 24 h, with or without EGF
[20] = test system: AKT; assay: AKT phosphorylation in S1 cells; type: cell-based, human
[21] = test system: HN5 cells; details: cited from earlier work
[22] = test system: ERK MAP kinases and PKB/Akt; details: SKOV (human ovarian cancer) cells, preincubation; cited from earlier work
[23] = test system: activated MAPK and Ki-67; details: humans, phase I trials, normal skin biopsies before and after administration; cited from earlier work
[24] = 72 h, GW572016 500 nM or 1 μM, Herceptin 10 μg/ml

T1 sequence (P04626 23-1255): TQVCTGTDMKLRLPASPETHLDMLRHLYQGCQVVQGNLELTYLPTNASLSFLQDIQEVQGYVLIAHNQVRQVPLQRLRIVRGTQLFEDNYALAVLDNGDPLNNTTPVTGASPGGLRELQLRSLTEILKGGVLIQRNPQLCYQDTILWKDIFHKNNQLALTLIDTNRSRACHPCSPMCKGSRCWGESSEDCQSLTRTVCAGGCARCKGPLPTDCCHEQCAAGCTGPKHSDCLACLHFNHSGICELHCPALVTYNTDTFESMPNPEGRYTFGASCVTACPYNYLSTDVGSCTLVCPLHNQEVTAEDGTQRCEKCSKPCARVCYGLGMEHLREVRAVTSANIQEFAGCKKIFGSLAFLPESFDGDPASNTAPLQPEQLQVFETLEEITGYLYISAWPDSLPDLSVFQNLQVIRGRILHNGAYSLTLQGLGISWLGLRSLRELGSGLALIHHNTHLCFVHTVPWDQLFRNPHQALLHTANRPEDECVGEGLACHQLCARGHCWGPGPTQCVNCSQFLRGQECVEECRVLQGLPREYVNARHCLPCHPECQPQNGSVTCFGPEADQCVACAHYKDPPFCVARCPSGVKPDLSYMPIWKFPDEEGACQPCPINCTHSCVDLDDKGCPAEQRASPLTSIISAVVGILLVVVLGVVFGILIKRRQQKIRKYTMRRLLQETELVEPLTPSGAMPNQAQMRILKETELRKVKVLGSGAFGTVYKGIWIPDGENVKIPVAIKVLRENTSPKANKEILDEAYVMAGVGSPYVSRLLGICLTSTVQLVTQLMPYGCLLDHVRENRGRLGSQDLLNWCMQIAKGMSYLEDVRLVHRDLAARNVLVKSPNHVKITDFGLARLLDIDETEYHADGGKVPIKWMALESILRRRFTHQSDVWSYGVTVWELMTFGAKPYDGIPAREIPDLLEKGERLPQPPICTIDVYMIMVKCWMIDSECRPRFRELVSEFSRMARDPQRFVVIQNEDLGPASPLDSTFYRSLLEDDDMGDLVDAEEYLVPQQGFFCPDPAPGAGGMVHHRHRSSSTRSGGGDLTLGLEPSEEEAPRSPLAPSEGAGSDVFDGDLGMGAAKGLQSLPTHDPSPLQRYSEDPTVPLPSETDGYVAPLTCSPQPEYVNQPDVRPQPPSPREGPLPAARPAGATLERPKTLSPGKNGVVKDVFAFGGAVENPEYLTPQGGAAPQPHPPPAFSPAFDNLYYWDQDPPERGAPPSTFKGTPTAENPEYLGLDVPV

CS(=O)(=O)CCNCc1ccc(-c2ccc3ncnc(Nc4ccc(OCc5cccc(F)c5)c(Cl)c4)c3c2)o1 [GW572016, N-{3-Chloro-4-[(3-fluorobenzyl)oxy]phenyl}-6-[5-({[2-(methylsulfonyl)ethyl]amino}methyl)-2-furyl]4-quinazolinamine]
p-AKT [1]: inhibits baseline phosphorylation of AKT | Baseline levels of p-Tyr/erbB2 [2]: inhibited baseline levels of p-Tyr/erbB2, an effect not reversed by EGF | Growth inhibition with concurrent EGF [3]: did not reverse | Total erbB2 protein [4]: had no effect | erbB2 p-tyr ([4]; day 21): did not inhibit | Total Erk1/2 protein (IHC) [5]: unaffected | p-Erk1/2 levels (IHC) [5]: reduced | Increase in percentage of apoptotic cells vs vehicle controls [6]: 23 fold | EGF stimulation of p-Erk1/2 ([7]; 1 μM, 24 h, EGF 50 ng/ml): inhibited EGF stimulation of p-Erk1/2 | p-Erk1/2 levels compared with untreated controls [7, 24]: inhibited p-Erk1/2 | Inhibition of p-AKT [8]: 33% | Downstream p-Erk1/2 ([9]; 5 μM, 24 h): inhibited downstream p-Erk1/2 | p-Erk1/2 levels compared with untreated controls [9, 24]: inhibited p-Erk1/2 | Activated erbB2 (IHC) [10]: inhibition of activated EGFR and erbB2 in a dose-dependent manner | erbB2 total protein (IHC) [10]: neither EGFR nor erbB2 total protein was affected | Localisation of total Erk1/2 protein [11]: almost entirely cytoplasmic | Growth arrest [12]: growth arrest was seen | p-AKT ([13]; 10 mg/kg): little effect | p-AKT ([13]; 30 mg/kg/dose): inhibited p-Erk1/2 and p-AKT | Baseline p-Erk [14]: reduced the baseline amount of p-Tyr/erbB2 and p-Erk, effects not reversed by EGF; also recorded: decreased | Inhibition of expressed cyclin D1 protein ([15]; patient 361, day 21): 90% | Decrease in cyclin D1 ([15]; patient 372, day 21): 80% | Clinical response at 8 weeks ([16]; patient 361, breast): partial responses | Sequentially biopsied metastatic lymph node ([16]; patient 364, 1600 mg/day, at day 21 biopsy): had reduced in size | Clinical response at 8 weeks ([16]; patient 372, breast): partial responses | Stable Disease at eight weeks ([16]; patients with >70% decrease in pERK index): Stable Disease: 3/5 | p-Erk1/2 ([17]; 10 mg/kg): little effect | p-Erk1/2 ([17]; 30 mg/kg/dose): inhibited p-Erk1/2 and p-AKT | Activated Erk1/2 in re-biopsy of metastatic subcutaneous nodule [18]: completely inhibited; also recorded: completely inactivated | p-AKT (Ser 473) [19]: completely inhibited p-AKT | Baseline phosphorylation of AKT [20]: inhibits baseline phosphorylation of AKT | Apoptosis (Rusnak et al.) [21]: increased only slightly

COc1cc2ncnc(Nc3ccc(F)c(Cl)c3)c2cc1OCCCN1CCOCC1 [ZD1839]
EGF-induced increases in activation of ERK MAP kinases and PKB/Akt [22]: block EGF-induced increases in activation of ERK MAP kinases and PKB/Akt | Expression of activated MAPK and Ki-67 in keratinocytes [23]: decreased expression of both activated MAPK and Ki-67
